These results are taken from ChEMBL document CHEMBL3988442, “University of Dundee, Small-Polar-MMV Screening Library” (2021).

The assay concerns Plasmodium falciparum. The experiment in a line: Calibr Malaria Delayed Death Assay SOP. Type of assay: functional, organism-based. The settings on record: for IC50: Plasmodium falciparum.

In general, pIC50 refers to −log10 of the IC50, conventionally taken in molar units. Higher therefore signals a small IC50. Usually IC50 stands for the concentration that inhibits the measured activity by half. A high value points to a need for much substance.

`COc1cccc(CN2CCCC(Nc3cccc(F)c3)C2)c1O` (stereo not drawn): the pIC50 is given as 6.314 and the IC50 is 810 nM.

Consider `COc1cc(CNCC(O)c2cccc(F)c2)cc2c1OCO2.Cl` (stereo not drawn), for which the negative-log IC50 (pIC50) was 6.133 and the half-maximal inhibitory concentration (IC50) is 729 nM.

`CCC1CN(CC(=O)NCCN2CCCCC2)c2ccccc2S1` (stereo not drawn) showed a pIC50 of 6.107 and an IC50 of 937 nM.

`Cc1ccccc1N1CCCN(CC2(O)CCCNC2)CC1` (stereo not drawn) gave a pIC50 of 6.443 and a half-maximal inhibitory concentration (IC50) of 314 nM.

In the case of `CC(C)C(CNCc1cccc2c1OCO2)N1CCOCC1` (stereo not drawn), the negative logarithm of the IC50 (pIC50) is listed as 6.558 and the concentration for half-maximal inhibition (IC50) was 429 nM.

As to `CN(CCc1cccc2ccccc12)Cc1nc(N)nc(N(C)C)n1`, the pIC50 was 5.915 and the IC50 was 1240 nM.

The compound `O=C(O)C(F)(F)F.c1ccc(C[C@H]2CN(C3CCOCC3)CC[C@H]2OCC2CC2)cc1` gave a negative logarithm of the IC50 (pIC50) of 6.236 and a half-inhibitory concentration (IC50) of 757 nM.

Consider `Cn1ccnc1CNC1CCCOc2c1ccc1ccccc21` (stereo not drawn), for which the negative-log IC50 (pIC50) was found to be 5.947 and the IC50 is 1200 nM.

The compound `CC(C)Oc1ccc(C(O)CNCc2ccccc2C(F)(F)F)cc1` (stereo not drawn) showed a pIC50 of 5.963 and an IC50 of 1150 nM.

As for `Cc1cc(S(=O)(=O)NCC2CNCCOC2)c(C)cc1Cl` (stereo not drawn), the negative-log IC50 (pIC50) is on record as 5.962 and inhibition was half-maximal at 990 nM (IC50).

The compound `CCCOc1ccc2ccccc2c1CN1CC[C@@]2(O)CCNC[C@H]2C1` gave a negative logarithm of the IC50 (pIC50) of 6.043 and an IC50 of 924 nM.

`CNc1nc(C)cc(NC2CCCN(C3Cc4ccccc4C3)C2)n1` (stereo not drawn) showed a negative logarithm of the IC50 (pIC50) of 6.114 and an IC50 of 968 nM.

On to `CC1(C)CC(N(Cc2ccccc2)Cc2cccnc2)CC(C)(C)N1.O=C(O)CC(O)(CC(=O)O)C(=O)O`, for which the negative logarithm of the IC50 (pIC50) is 5.927 and the IC50 was 602 nM.

With `O=C(Nc1ccc(OC2CCCC2)cc1)C1CCCN1c1nccs1` (stereo not drawn), the pIC50 was found to be 7.074 and the IC50 is 79.3 nM.

In turn, `CN1CCN(S(=O)(=O)c2ccc(Cl)c(Cl)c2)c2cnccc21` showed a negative-log IC50 (pIC50) of 6.238 and an IC50 of 557 nM.

`CN(C)[C@@H]1CCN(c2ncccn2)[C@H]1Cc1ccccc1`: the pIC50 is on record as 6.116 and half-maximal inhibition (IC50) required 554 nM.

In turn, `CC(NCCc1nccn1Cc1ccccc1)c1cccs1` (stereo not drawn) gave a pIC50 of 5.98 and an IC50 of 1290 nM.

For `Cc1c(C)n(CC(O)CN2CCN(CCO)CC2)c2c(Cl)cccc12.Cl` (stereo not drawn), the negative-log IC50 (pIC50) is given as 6.075 and the 50% inhibitory concentration (IC50) is 950 nM.

For the compound `COc1cccc(-n2ccc3nc(N4CCCC4)ncc3c2=O)c1`, the negative logarithm of the IC50 (pIC50) turned out to be 5.801 and the IC50 was 1470 nM.

`c1ccc(CCCN2CCN(c3ccc4nncn4n3)CC2)cc1` showed a pIC50 of 5.983 and a half-maximal inhibitory concentration (IC50) of 1410 nM.

Regarding `Oc1ccc(Cl)cc1CNCc1ccccc1Cl`, the negative-log IC50 (pIC50) came out at 6.1 and inhibition was half-maximal at 616 nM (IC50).

Turning to `CC(=O)N(c1ccc(F)cc1)c1nc(CN2CCCC2C(C)C)cs1` (stereo not drawn), the negative-log IC50 (pIC50) was found to be 6.177 and 479 nM corresponded to half-maximal inhibition (IC50).

In the case of `CO[C@H]1CN(C(C)C)C[C@@H]1NC(=O)c1cc(-c2ccccc2O)n[nH]1`, the negative-log IC50 (pIC50) worked out at 6.125 and the 50% inhibitory concentration (IC50) was 891 nM.

With `CN(C)CC1CSCCCN1S(=O)(=O)Cc1cccc(F)c1` (stereo not drawn), the pIC50 is reported as 6.26 and it took 751 nM to reach half-maximal inhibition (IC50).

In turn, `Cc1cccc(Nc2cccc(C3CCCN(Cc4ncc[nH]4)C3)n2)n1` (stereo not drawn) gave a pIC50 of 6.378 and an IC50 of 465 nM.

`CN(CCCO)Cc1cc(Cl)ccc1OCC(O)CN1CCCCCC1` (stereo not drawn) showed a negative-log IC50 (pIC50) of 6.2 and an IC50 of 738 nM.

`Fc1ccc(Sc2ccccc2CNC2=NCCN2)cc1.I` had a pIC50 of 5.875 and an IC50 of 1210 nM.

`CNC(=O)CCN(C)CC1(c2ccc(Br)cc2)CC1` had a negative logarithm of the IC50 (pIC50) of 6.438 and a 50% inhibitory concentration (IC50) of 340 nM.

As for `CN1CCN(c2ccccc2NC(=O)NCCc2ccccc2)CC1`, the pIC50 amounted to 6.032 and half-maximal inhibition (IC50) required 998 nM.
